Here are results for eight molecules from US8431568B2, “Aromatic heterocyclic fused indolobenzadiazepine HCV NS5B inhibitors” (Bristol-Myers Squibb Company, priority 2008, dated 2013).

The target in assay [1] is T1, HCV NS5B RdRp genotype 1b (Hepatitis C virus genotype 1b, UniProt Q9WMX2).
T1 construct: The protein was expressed with an 18 amino acid C-terminal truncation to enhance the solubility; made in house; host or cells: E. coli BL21(DE3), pET21a vector
Kind of assay: Modified HCV NS5B RdRp enzyme assay (preincubation protocol). In kind it is biochemical. The method, then: HCV NS5B RdRp Cloning, Expression, and Purification.
The cDNA encoding the NS5B protein of HCV, genotype 1b, was cloned into the pET21a expression vector. The protein was expressed with an 18 amino acid C-terminal truncation to enhance the solubility. The E. coli competent cell line BL21(DE3) was used for expression of the protein. Cultures were grown at 37° C. for ˜4 hours until the cultures reached an optical density of 2.0 at 600 nm. The cultures were cooled to 20° C. and induced with 1 mM IPTG. Fresh ampicillin was added to a final concentration of 50 μg/ml and the cells were grown overnight at 20° C.
Cell pellets (3 L) were lysed for purification to yield 15-24 mgs of purified NS5B. The lysis buffer consisted of 20 mM Tris-HCl, pH 7.4, 500 mM NaCl, 0.5% triton X-100, 1 mM DTT, 1 mM EDTA, 20% glycerol, 0.5 mg/ml lysozyme, 10 mM MgCl2, 15 ug/ml deoxyribonuclease I, and Complete TM protease inhibitor tablets (Roche). After addition of the lysis buffer, frozen cell pellets were resuspended using a tissue homogenizer. To reduce the viscosity of the sample, aliquots of the lysate were sonicated on ice using a microtip attached to a Branson sonicator. The sonicated lysate was centrifuged at 100,000×g for 1 hr at 4° C. and filtered through a 0.2 μm filter unit (Corning).
The protein was purified using three sequential chromatography steps: Heparin sepharose CL-6B, polyU sepharose 4B, and Hitrap SP sepharose (Pharmacia). The chromatography buffers were identical to the lysis buffer but contained no lysozyme, deoxyribonuclease I, MgCl2 or protease inhibitor and the NaCl concentration of the buffer was adjusted according to the requirements for charging the protein onto the column. Each column was eluted with a NaCl gradient which varied in length from 5-50 column volumes depending on the column type. After the final chromatography step, the resulting purity of the enzyme is >90% based on SDS-PAGE analysis. The enzyme was aliquoted and stored at −80° C.
Standard HCV NS5B RdRp Enzyme Assay.
HCV RdRp genotype 1b assays were run in a final volume of 60 μl in 96 well plates (Costar 3912). The assay buffer is composed of 20 mM Hepes, pH 7.5, 2.5 mM KCl, 2.5 mM MgCl2, 1 mM DTT, 1.6 U RNAse inhibitor (Promega N2515), 0.1 mg/ml BSA (Promega R3961), and 2% glycerol. All compounds were serially diluted (3-fold) in DMSO and diluted further in water such that the final concentration of DMSO in the assay was 2%. HCV RdRp genotype 1b enzyme was used at a final concentration of 28 nM. A polyA template was used at 6 nM, and a biotinylated oligo-dT12 primer was used at 180 nM final concentration. Template was obtained commercially (Amersham 27-4110). Biotinylated primer was prepared by Sigma Genosys. 3H-UTP was used at 0.6 μCi (0.29 μM total UTP). Reactions were initiated by the addition of enzyme, incubated at 30° C. for 60 min, and stopped by adding 25 μl of 50 mM EDTA containing SPA beads (4 μg/μl, Amersham RPNQ 0007). Plates were read on a Packard Top Count NXT after >1 hr incubation at room temperature.
Modified HCV NS5B RdRp Enzyme Assay.
A modified enzyme assay was performed essentially as described for the standard enzyme assay except for the following: The biotinylated oligo dT12 primer was precaptured on streptavidin-coated SPA beads by mixing primer and beads in assay buffer and incubating at room temperature for one hour. Unbound primer was removed after centrifugation. The primer-bound beads were resuspended in 20 mM Hepes buffer, pH 7.5 and used in the assay at final concentrations of 20 nM primer and 0.67 μg/μl beads. Order of addition in the assay: enzyme (14 nM) was added to diluted compound followed by the addition of a mixture of template (0.2 nM), 3H-UTP (0.6 μCi, 0.29 μM), and primer-bound beads, to initiate the reaction; concentrations given are final. Reactions were allowed to proceed for 4 hours at 30° C.
IC50 values for compounds were determined using seven different [I]. […]

In assay [2] the test system is HCV replicon cells. Kind of assay: HCV replicon FRET assay. It counts as cell-based. The note with it: Hepatitis C virus. An excerpt: To perform the HCV FRET screening assay, 96-well cell culture plates were used. The FRET peptide (Anaspec, Inc.) (Taliani et al., Anal. Biochem. 1996, 240, 60-67) contains a fluorescence donor, EDANS, near one end of the peptide and an acceptor, DABCYL, near the other end. The fluorescence of the peptide is quenched by […] resonance energy transfer (RET) between the donor and the acceptor, but as the NS3 protease cleaves the peptide the products are released from RET quenching and the fluorescence of the donor becomes apparent. The assay reagent was made as follows: 5× cell Luciferase cell culture lysis reagent from Promega (#E153A) diluted to 1× with dH2O, NaCl added to 150 mM final, the FRET peptide diluted to 20 uM final from a 2 mM stock.
To prepare plates, HCV replicon cells, with or without a Renilla luciferase reporter gene, were trypsinized and placed into each well of a 96-well plate with titrated test compounds added in columns 3 through 12; columns 1 and 2 contained a control compound (HCV protease inhibitor), and the bottom row contained cells without compound. The plates were then placed in a CO2 incubator at 37° C.
Subsequent to addition of the test compounds described above (FRET Assay Preparation), at various times the plate was removed and Alamar blue solution (Trek Diagnostics, #00-100) was added per well as a measure of cellular toxicity. After reading in a Cytoflour 4000 instrument (PE Biosystems), plates were rinsed with PBS and then used for FRET assay by the addition of 30 ul of the FRET peptide assay reagent described above (FRET Assay Preparation) per well. The plate was then placed into the Cytoflour 4000 instrument which had been set to 340 excite/490 emission, automatic mode for 20 cycles and the plate read in a kinetic mode. Typically, the signal to noise using an endpoint analysis after the reads was at least three-fold. Alternatively, after Alamar blue reading, plates were rinsed with PBS, 50 ul of DMEM (high glucose) without phenol red was added and plates were then used for luciferase assay using the Promega Dual-Glo Luciferase Assay System.
Compound analysis was determined by quantification of the relative HCV replicon inhibition and the relative cytotoxicity values. To calculate cytoxicity values, the average Alamar Blue fluorescence signals from the control wells were set as 100% non-toxic. The individual signals in each of the compound test wells were then divided by the average control signal and multiplied by 100% to determine […]. To calculate the HCV replicon inhibition values, an average background value was obtained from the two wells containing the highest amount of HCV protease inhibitor at the end of the assay period. These numbers were similar to those obtained from naïve Huh-7 cells.
The background numbers were then subtracted from the average signal obtained from the control wells and this number was used as 100% activity. The individual signals in each of the compound test wells were then divided by the averaged control values after background subtraction and multiplied by 100% to determine percent activity. EC50 values for a protease inhibitor titration were calculated as the concentration which caused a 50% reduction in FRET or luciferase activity. The two numbers generated for the compound plate, percent cytoxicity and percent activity were used to determine compounds of interest for further analysis.
(In general: In antiviral work, replicon cells carry a viral genome segment that copies itself.)

T1 sequence (Q9WMX2 2420-2992): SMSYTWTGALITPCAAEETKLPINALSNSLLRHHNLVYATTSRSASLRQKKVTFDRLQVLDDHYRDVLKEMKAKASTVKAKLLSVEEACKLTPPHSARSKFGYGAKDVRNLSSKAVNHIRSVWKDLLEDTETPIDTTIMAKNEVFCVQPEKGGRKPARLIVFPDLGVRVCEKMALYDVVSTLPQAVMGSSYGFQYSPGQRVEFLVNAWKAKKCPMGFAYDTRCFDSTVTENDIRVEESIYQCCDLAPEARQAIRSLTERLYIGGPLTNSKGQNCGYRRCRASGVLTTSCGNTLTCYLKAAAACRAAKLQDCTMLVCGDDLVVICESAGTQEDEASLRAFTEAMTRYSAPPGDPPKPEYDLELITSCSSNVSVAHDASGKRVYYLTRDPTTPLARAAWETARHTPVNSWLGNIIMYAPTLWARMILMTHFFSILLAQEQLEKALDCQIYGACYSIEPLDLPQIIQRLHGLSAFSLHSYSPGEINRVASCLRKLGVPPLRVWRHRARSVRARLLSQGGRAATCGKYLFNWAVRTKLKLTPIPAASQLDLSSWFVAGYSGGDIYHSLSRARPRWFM

Broadly, the IC50 is the concentration that inhibits the measured activity by half. The term EC50 denotes the midpoint of the concentration-response curve. The low end stands for an effect from little substance, the high end for a need for much substance. Regarding `O=C(O)c1ccc2c(C3CCCCC3)c3n(c2c1)Cc1nncn1-c1ccccc1-3` [Example 1, 10-Cyclohexyl-4H-indolo[1,2-d][1,2,4]triazolo[4,3-a][1,4]benzodiazepine-7-carboxylic acid], the IC50 in assay [1] is 140 nM. In addition, in assay [2], the EC50 turned out to be 910 nM.

On to `CN(C)S(=O)(=O)NC(=O)c1ccc2c(C3CCCCC3)c3n(c2c1)Cc1nncn1-c1ccccc1-3` [Example 2, 10-Cyclohexyl-N-((dimethylamino)sulfonyl)-4H-indolo[1,2-d][1,2,4]triazolo[4,3-a][1,4]benzodiazepine-7-carboxamide], for which, in assay [1], the IC50 was found to be 20 nM. In assay [2], it took 160 nM to reach a half-maximal effect (EC50).

Consider `Cc1nnc2n1-c1ccccc1-c1c(C3CCCCC3)c3ccc(C(=O)O)cc3n1C2` [Example 3, 10-Cyclohexyl-1-methyl-4H-indolo[1,2-d][1,2,4]triazolo[4,3-a][1,4]benzodiazepine-7-carboxylic acid], for which the IC50 in assay [1] was found to be 170 nM. In assay [2], this molecule registered an EC50 of 770 nM.

`Cc1nnc2n1-c1ccccc1-c1c(C3CCCCC3)c3ccc(C(=O)NS(=O)(=O)N(C)C)cc3n1C2` [Example 4, 10-Cyclohexyl-N-((dimethylamino)sulfonyl)-1-methyl-4H-indolo[1,2-d][1,2,4]triazolo[4,3-a][1,4]benzodiazepine-7-carboxamide] gave an IC50 in assay [1] of 54 nM. The midpoint of the response in assay [2], the EC50, lay at 320 nM.

Molecule `O=C(O)c1ccc2c(C3CCCCC3)c3n(c2c1)Cc1nccn1-c1ccccc1-3` [Example 5, 10-Cyclohexyl-4H-imidazo[1,2-a]indolo[1,2-d][1,4]benzodiazepine-7-carboxylic acid] had a 50% inhibitory concentration (IC50) in assay [1] of 26 nM. For the same molecule, the EC50 in assay [2] is 740 nM.

`CN(C)S(=O)(=O)NC(=O)c1ccc2c(C3CCCCC3)c3n(c2c1)Cc1nccn1-c1ccccc1-3` [Example 6, 10-Cyclohexyl-N-((dimethylamino)sulfonyl)-4H-imidazo[1,2-a]indolo[1,2-d][1,4]benzodiazepine-7-carboxamide]: the IC50 in assay [1] stood at 19 nM. In addition, the EC50 in assay [2] is 390 nM.

In turn, `Cc1cn2c(n1)Cn1c(c(C3CCCCC3)c3ccc(C(=O)O)cc31)-c1ccccc1-2` [Example 7, 10-Cyclohexyl-2-methyl-4H-imidazo[1,2-a]indolo[1,2-d][1,4]benzodiazepine-7-carboxylic acid] returned an IC50 in assay [1] of 130 nM. This molecule showed a 50% effective concentration (EC50) in assay [2] of 2850 nM.

In turn, `Cc1cn2c(n1)Cn1c(c(C3CCCCC3)c3ccc(C(=O)NS(=O)(=O)N(C)C)cc31)-c1ccccc1-2` [Example 8, 10-Cyclohexyl-N-((dimethylamino)sulfonyl)-2-methyl-4H-imidazo[1,2-a]indolo[1,2-d][1,4]benzodiazepine-7-carboxamide] showed an IC50 in assay [1] of 33 nM. Further, the response in assay [2] was half-maximal at 710 nM (EC50).
